Measured values published in patent US9161990B2, “Hydrochloride salts of a glycopeptide-cephalosporin antbiotic compond” (THERAVANCE BIOPHARMA ANTIBIOTICS IP, LLC, priority 2013, dated 2015).
Structures can show the parent of a compound that is named as a salt.

Experiments:
[1] = Storage stability of lyophilized hydrochloride salts (purity by HPLC); assay type: physicochemical
Procedure: (§1) All solvents were HPLC grade and were purchased from Honeywell Burdick & Jackson (Muskegon, Mich. 49442). Phosphoric acid (85% w/w) and sodium dihydrogen phosphate were HPLC grade and were purchased from Fluka (Sigma-Aldrich, St. Louis, Mo. 63103). All reagents were used without further purification.
(§2) Test samples were filtered through a 0.2 μm polyvinylidene fluoride (PVDF) filter before analysis and the first 1 mL was discarded.
(§3) Test sample purity was determined based on the integrated peak area (area-under-the-curve or AUC) for the compound as a percentage of all integrated peaks. The concentration (assay value) of the compound in a test sample was determined by comparison with a reference standard.
(§4) One rack was stored protected from light in a drawer at room temperature and the other rack was stored in a refrigerator at 2 to 8° C. A representative vial of each type of stability sample was analyzed by HPLC after storage for 1, 3, 6 and 12 months to determine purity.

[2] = Storage stability of hydrochloride salts in a lyophilized composition containing sucrose and glycine (purity by HPLC); assay type: physicochemical; details: for Purity (HPLC area percent) / Δ (change in percent purity from time = 0): composition containing sucrose and glycine; for decrease in purity: formulated with sucrose and glycine
Procedure: as §1, §2, §3, §4

[3] = refrigerated temperature (2 to 8° C.), 1 month, monohydrochloride
[4] = refrigerated temperature (2 to 8° C.), 3 months, monohydrochloride
[5] = refrigerated temperature (2 to 8° C.), 6 months, monohydrochloride
[6] = refrigerated temperature (2 to 8° C.), 12 months, monohydrochloride
[7] = room temperature, 1 month, listed as Mono HCl, monohydrochloride
[8] = room temperature, 1 month, monohydrochloride
[9] = room temperature, 3 months, listed as Mono HCl, monohydrochloride
[10] = room temperature, 3 months, monohydrochloride
[11] = room temperature, 6 months, listed as Mono HCl, monohydrochloride
[12] = room temperature, 6 months, monohydrochloride
[13] = room temperature, 12 months, listed as Mono HCl, monohydrochloride
[14] = room temperature, 12 months, monohydrochloride
[15] = stored at 2 to 8° C. for 12 months, listed as monohydrochloride salt, monohydrochloride
[16] = stored at room temperature for 12 months, listed as monohydrochloride salt, monohydrochloride
[17] = refrigerated temperature (2 to 8° C.), 1 month, Trihydrochloride
[18] = refrigerated temperature (2 to 8° C.), 3 months, Trihydrochloride
[19] = refrigerated temperature (2 to 8° C.), 6 months, Trihydrochloride
[20] = refrigerated temperature (2 to 8° C.), 12 months, Trihydrochloride
[21] = refrigerated temperature (2 to 8° C.), time 0 months, Trihydrochloride
[22] = room temperature, 1 month, Trihydrochloride
[23] = room temperature, 3 months, Trihydrochloride
[24] = room temperature, 6 months, Trihydrochloride
[25] = room temperature, 12 months, Trihydrochloride
[26] = room temperature, time 0 months, Trihydrochloride
[27] = stored at 2 to 8° C. for 12 months, listed as trihydrochloride salt, Trihydrochloride

Structure (SMILES): CN[C@H](CC(C)C)C(=O)N[C@H]1C(=O)N[C@@H](CC(N)=O)C(=O)N[C@H]2C(=O)N[C@H]3C(=O)N[C@H](C(=O)N[C@H](C(=O)NCCCO/N=C(\C(=O)N[C@@H]4C(=O)N5C(C(=O)[O-])=C(C[n+]6ccccc6)CS[C@H]45)c4nc(N)sc4Cl)c4cc(O)cc(O)c4-c4cc3ccc4O)[C@H](O)c3ccc(c(Cl)c3)Oc3cc2cc(c3O[C@@H]2O[C@H](CO)[C@@H](O)[C@H](O)[C@H]2O[C@H]2C[C@](C)(N)[C@H](O)[C@H](C)O2)Oc2ccc(cc2Cl)[C@H]1O [Monohydrochloride, 26-[[[3-[[(Z)-[1-(2-amino-5-chloro-4-thiazolyl)-2-[[(6R,7R)-2-carboxy-8-oxo-3-(pyridiniomethyl)-5-thia-1-azabicyclo[4.2.0]oct-2-en-7-yl]amino]-2-oxoethylidene]amino]oxy]propyl]amino]carbonyl]-26-decarboxyvancomycin monohydrochloride]
- Purity (HPLC area percent) [1, 3]: 90.0%
- Δ (change in percent purity from time = 0) [1, 3]: −0.4%
- Purity (HPLC area percent) [1, 4]: 90.2%
- Δ (change in percent purity from time = 0) [1, 4]: −0.2%
- Δ (change in percent purity from time = 0) [1, 5]: 0.0%
- Purity (HPLC area percent) [1, 6]: 87.4%
- Δ (change in percent purity from time = 0) [1, 6]: −3.0%
- Purity (HPLC area percent) [1, 7]: 89.3%
- Δ (change in percent purity from time = 0) [1, 7]: −1.1%
- Purity (HPLC area percent) [1, 8]: 89.3%
- Δ (change in percent purity from time = 0) [1, 8]: −1.1%
- Purity (HPLC area percent) [1, 9]: 82.0%
- Δ (change in percent purity from time = 0) [1, 9]: −8.4%
- Purity (HPLC area percent) [1, 10]: 82.0%
- Δ (change in percent purity from time = 0) [1, 10]: −8.4%
- Purity (HPLC area percent) [1, 11]: 79.9%
- Δ (change in percent purity from time = 0) [1, 11]: −10.5%
- Purity (HPLC area percent) [1, 12]: 79.9%
- Δ (change in percent purity from time = 0) [1, 12]: −10.5%
- Purity (HPLC area percent) [1, 13]: 67.0%
- Δ (change in percent purity from time = 0) [1, 13]: −23.4%
- Purity (HPLC area percent) [1, 14]: 67.0%
- Δ (change in percent purity from time = 0) [1, 14]: −23.4%
- decrease in purity [1, 15]: 3.0%
- decrease in purity [1, 16]: 23.4%
- storage stability compared to the trihydrochloride salt ([1]; stored for 12 months at either room temperature or 2 to 8° C.): significantly more stable than the trihydrochloride salt
- Purity (HPLC area percent) [2, 3]: 90.7%
- Δ (change in percent purity from time = 0) [2, 3]: 0.3%
- Purity (HPLC area percent) [2, 4]: 88.9%
- Δ (change in percent purity from time = 0) [2, 4]: −1.5%
- Purity (HPLC area percent) [2, 5]: 91.7%
- Δ (change in percent purity from time = 0) [2, 5]: 1.3%
- Purity (HPLC area percent) [2, 6]: 88.5%
- Δ (change in percent purity from time = 0) [2, 6]: −1.9%
- Purity (HPLC area percent) [2, 8]: 89.0%
- Δ (change in percent purity from time = 0) [2, 8]: −1.4%
- Δ (change in percent purity from time = 0) [2, 10]: −3.5%
- Δ (change in percent purity from time = 0) [2, 12]: −2.5%
- Δ (change in percent purity from time = 0) [2, 14]: −8.9%
- decrease in purity [2, 15]: 1.9%
- decrease in purity [2, 16]: 8.9%
- storage stability when formulated with sucrose and glycine ([2]; stored at room temperature for 12 months, compared to the salt alone): more stable

Structure (SMILES): CN[C@H](CC(C)C)C(=O)NC1C(=O)N[C@@H](CC(N)=O)C(=O)N[C@H]2C(=O)N[C@H]3C(=O)N[C@H](C(=O)N[C@H](C(=O)NCCCO/N=C(\C(=O)N[C@@H]4C(=O)N5C(C(=O)[O-])=C(C[n+]6ccccc6)CS[C@H]45)c4nc(N)sc4Cl)c4cc(O)cc(O)c4-c4cc3ccc4O)[C@H](O)c3ccc(c(Cl)c3)Oc3cc2cc(c3O[C@@H]2O[C@H](CO)[C@@H](O)[C@H](O)[C@H]2O[C@H]2C[C@](C)(N)[C@H](O)[C@H](C)O2)Oc2ccc(cc2Cl)[C@H]1O (stereo partly drawn) [Trihydrochloride, 26-[[[3-[[(Z)-[1-(2-Amino-5-chloro-4-thiazolyl)-2-[[(6R,7R)-2-carboxy-8-oxo-3-(pyridiniomethyl)-5-thia-1-azabicyclo[4.2.0]oct-2-en-7-yl]amino]-2-oxoethylidene]amino]oxy]propyl]amino]carbonyl]-26-decarboxyvancomycin Trihydrochloride, reference compound]
- Purity (HPLC area percent) [1, 17]: 84.0%
- Δ (change in percent purity from time = 0) [1, 17]: −0.5%
- Purity (HPLC area percent) [1, 18]: 80.7%
- Δ (change in percent purity from time = 0) [1, 18]: −3.8%
- Purity (HPLC area percent) [1, 19]: 79.4%
- Δ (change in percent purity from time = 0) [1, 19]: −5.1%
- Purity (HPLC area percent) [1, 20]: 76.0%
- Δ (change in percent purity from time = 0) [1, 20]: −8.6%
- Purity (HPLC area percent) [1, 21]: 84.5%
- Purity (HPLC area percent) [1, 22]: 74.8%
- Δ (change in percent purity from time = 0) [1, 22]: −9.7%
- Purity (HPLC area percent) [1, 23]: 69.5%
- Δ (change in percent purity from time = 0) [1, 23]: −15.0%
- Purity (HPLC area percent) [1, 24]: 56.5%
- Δ (change in percent purity from time = 0) [1, 24]: −28.0%
- Purity (HPLC area percent) [1, 25]: 50.4%
- Δ (change in percent purity from time = 0) [1, 25]: −34.2%
- Purity (HPLC area percent) [1, 26]: 84.5%
- decrease in purity [1, 27]: 8.6%
- decomposition on storage ([1]; stored at room temperature or at refrigerated temperature (about 2 to about 8° C.)): decompose significantly
- Purity (HPLC area percent) [2, 17]: 91.5%
- Δ (change in percent purity from time = 0) [2, 17]: 0.2%
- Δ (change in percent purity from time = 0) [2, 18]: −0.5%
- Purity (HPLC area percent) [2, 19]: 92.8%
- Δ (change in percent purity from time = 0) [2, 19]: 1.5%
- Purity (HPLC area percent) [2, 20]: 90.1%
- Δ (change in percent purity from time = 0) [2, 20]: −1.2%
- Purity (HPLC area percent) [2, 21]: 91.3%
- Purity (HPLC area percent) [2, 22]: 89.2%
- Δ (change in percent purity from time = 0) [2, 22]: −2.1%
- Purity (HPLC area percent) [2, 23]: 84.4%
- Δ (change in percent purity from time = 0) [2, 23]: −6.9%
- Purity (HPLC area percent) [2, 24]: 82.5%
- Δ (change in percent purity from time = 0) [2, 24]: −8.8%
- Purity (HPLC area percent) [2, 25]: 65.0%
- Δ (change in percent purity from time = 0) [2, 25]: −26.3%
- Purity (HPLC area percent) [2, 26]: 91.3%
- decrease in purity [2, 27]: 1.2%
- decrease in purity ([2]; stored at room temperature for 12 months, listed as trihydrochloride salt, Trihydrochloride): 26.3%
